Values of other authors in patent publication US20220401579A1, “INCLUSION COMPLEXES OF PHARMACEUTICALS AND CYCLIC OLIGOMERS” (DISPERSOL TECHNOLOGIES, LLC, priority 2019, published 2022).
Where two headings read alike, the source gives them in different places.

Legend:
[1] = for solubility in water / aqueous media (descriptive): water or aqueous media
[2] = granulate released in the proximal small intestine

COC(=O)c1ccc2c(c1)NC(=O)/C2=C(\Nc1ccc(N(C)C(=O)CN2CCN(C)CC2)cc1)c1ccccc1 [Nintedanib, 1H-Indole-6-carboxylic acid, 2,3 dihydro-3-[[[4-[methyl[(4-methyl-1-piperazinyl)acetyl]amino]phenyl]amino]phenylmethylene]-2-oxo-,methyl ester]
median Tmax (fasted): 2.00 h
median Tmax (fed): 3.98 h
increase in exposure after food intake compared to fasted conditions (fed versus fasted): approximately 20%

CC(O)COC[C@H]1O[C@@H]2O[C@H]3[C@H](O)[C@@H](O)[C@@H](O[C@H]4[C@H](O)[C@@H](O)[C@@H](O[C@H]5[C@H](O)[C@@H](O)[C@@H](O[C@H]6[C@H](O)[C@@H](O)[C@@H](O[C@H]7[C@H](O)[C@@H](O)[C@@H](O[C@H]8[C@H](O)[C@@H](O)[C@@H](O[C@H]1[C@H](O)[C@H]2O)O[C@@H]8COCC(C)O)O[C@@H]7COCC(C)O)O[C@@H]6COCC(C)O)O[C@@H]5COCC(C)O)O[C@@H]4COCC(C)O)O[C@@H]3COCC(C)O (stereo partly drawn) [HPBCD, hydroxy propyl β cyclodextrin]
water solubility ([1]; water): > 600 mg/mL

CCC(C)n1ncn(-c2ccc(N3CCN(c4ccc(OCC5COC(Cn6cncn6)(c6ccc(Cl)cc6Cl)O5)cc4)CC3)cc2)c1=O (stereo not shown) [Itraconazole, 2-butan-2-yl-4-[4-[4-[4-[[2-(2,4-dichlorophenyl)-2-(1,2,4-triazol-1-ylmethyl)-1,3-dioxolan-4-yl]methoxy]phenyl]-1-piperazinyl]phenyl]-1,2,4-triazol-3-one]
solubility in alcohols (descriptive) ([1]; alcohols): very slightly soluble
solubility in dichloromethane (descriptive) ([1]; dichloromethane): freely soluble
log (n-octanol/water) partition coefficient ([1]; pH 8.1): 5.66
solubility in water / aqueous media (descriptive) [1]: insoluble

CNC(=O)c1cc(Oc2ccc(NC(=O)Nc3ccc(Cl)c(C(F)(F)F)c3)cc2)ccn1 [Sorafenib, 4-[4-({[4-chloro-3-(trifluoromethyl)phenyl]carbamoyl}amino)phenoxy]-N-methylpyridine-2-carboxamide]
solubility in PEG 400 (descriptive) ([1]; PEG 400): soluble
solubility in ethanol (descriptive) ([1]; ethanol): slightly soluble
solubility in water / aqueous media (descriptive) [1]: practically insoluble

O=C(NC[C@H]1CN(c2ccc(N3CCOCC3=O)cc2)C(=O)O1)c1ccc(Cl)s1 [Rivaroxaban, 5-Chloro-N-({(5S)-2-oxo-3-[4-(3-oxo-4-morpholinyl)phenyl]-1,3-oxazolidin-5-yl}methyl)-2-thiophenecarboxamide]
absolute bioavailability (20 mg dose, fasted state): approximately 66%
decrease in AUC compared to tablet [2]: 29%
decrease in Cmax compared to tablet [2]: 56%
solubility in organic solvents (descriptive) ([1]; organic solvents (e.g., acetone, polyethylene glycol 400)): only slightly soluble
solubility in water / aqueous media (descriptive) [1]: practically insoluble

COC(=O)c1ccc2c(c1)NC(=O)/C2=C(\Nc1ccc(N(C)C(=O)CN2CCN(C)CC2)cc1)c1ccccc1 [Nintedanib esylate, 1H-Indole-6-carboxylic acid, 2,3 dihydro-3-[[[4-[methyl[(4-methyl-1-piperazinyl)acetyl]amino]phenyl]amino]phenylmethylene]-2-oxo-,methyl ester, (3Z)-, ethanesulfonate (1:1)]
intrinsic pH of saturated solution in water ([1]; saturated solution in water): 5.7
concentration of a saturated solution in water ([1]; water): 2800 µg/mL
solubility in water / aqueous media (descriptive) [1]: soluble
